According to PubChem BioAssay (NCI):
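1) Cells in 96-well plates. 2) Compound, 48 h, 5 concentrations. 3) Linear interpolation between surrounding doses. 4) Unreached endpoint = highest concentration. TGI: concentration producing complete growth inhibition.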

Key:
Test in all cases: NCI anticancer screen, dose series, 48 h
DLD-1 colon = system: DLD-1 colon
DMS 273 small cell lung = system: DMS 273 small cell lung
HOP-18 NSCLC = system: HOP-18 NSCLC
KM20L2 colon = system: KM20L2 colon
LXFL 529 NSCLC = system: LXFL 529 NSCLC
M19-MEL melanoma = system: M19-MEL melanoma
RXF-631 renal = system: RXF-631 renal
SNB-78 CNS = system: SNB-78 CNS
DMS 114 small cell lung = system: DMS 114 small cell lung

Row | SMILES | TGI (DLD-1 colon) [µM] | TGI (DMS 273 small cell lung) [µM] | TGI (HOP-18 NSCLC) [µM] | TGI (KM20L2 colon) [µM] | TGI (LXFL 529 NSCLC) [µM] | TGI (M19-MEL melanoma) [µM] | TGI (RXF-631 renal) [µM] | TGI (SNB-78 CNS) [µM] | TGI (DMS 114 small cell lung) [µM]
1 | COc1ccc(/C=N/N=C(\N)NO)cc1F | > 100 | 84.4 | 90.5 | > 100 | > 100 | 72.3 | > 100 | > 100 | 
2 | O=C1C[C@@H]2[C@@H](c3ccccc3)[C@@H]3C(=O)c4ccccc4NC(=O)[C@H]3[C@]2(O)c2ccccc2N1 |  | > 100 |  | > 100 | > 100 | > 100 |  | > 100 | > 100
3 | CCOC(=O)C1=C(O)C(=O)c2ccoc2C1=O |  | > 100 | > 100 | > 100 |  | > 100 |  | > 100 | > 100
4 | Cc1cc(N(CCC#N)CCC#N)ccc1/C=C(\NC(=O)/C=C/c1ccccc1)C(=O)Nc1ccc(Cl)cc1 | > 100 | > 100 | > 100 | > 79.6 | > 100 | > 38.1 | > 100 | > 100 | > 100
5 | NCCCC(N=Cc1nc(-c2ccccc2)oc1O)C(=O)O (stereo not given) | > 100 | > 100 |  | > 100 | > 100 | > 100 |  | > 100 | > 100
6 | CCCCCCCCCCCCCCCCCCOCC(C[N+]1(C)CCC(O)CC1)OCC (stereo not given) | 44.8 | 4.91 |  |  | 11 | 14.4 | 21.1 | 14.7 | 12.6
7 | O=C(Nc1ccc([N+](=O)[O-])cc1[N+](=O)[O-])C(=O)C(C(=O)c1ccc(Cl)c(Cl)c1)C1OC(=O)c2ccccc21 (stereo not given) | 42.4 | > 100 |  | 89.7 | 47.3 | 79.4 |  | 93.3 | 59.5
